Literature values in patent publication US20220154183A1, “CHMP2A as a Regulator of Natural Killer Cell-Mediated Activity” (The Regents of the University of California, priority 2019, published 2022).

Test system: HNSCC
Conditions: cetuximab as monotherapy

Substance	patients responding [%]
pembrolizumab	20
Nivolumab	20
